Test results: patent publication US20240041042A1, “1-(PYRIDYL)-5-AZINYLPYRAZOLE DERIVATIVES, AND THEIR USE FOR CONTROL OF UNDESIRED PLANT GROWTH” (Bayer Aktiengesellschaft, priority 2020, published 2024)
Where two headings read alike, the source gives them in different places.

Assays:
Assay type in all cases: in vivo
[1] = tested on: Amaranthus retroflexus (AMARE); experiment: Pre-emergence herbicidal action against AMARE; settings: visual scoring after about 3 weeks vs untreated controls
Method in brief: (§1)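 Dosages of 320 g/ha or less; pre-emergence; WP or EC in aqueous spray, 0.5% additive, 600 l/ha; greenhouse; visual % effect after ~3 wk relative to control pots.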

[2] = tested on: Avena fatua (AVEFA); experiment: Pre-emergence herbicidal action against AVEFA; settings: 320 g/ha, visual scoring after about 3 weeks vs untreated controls
Method in brief: as §1

[3] = tested on: Echinochloa crus-galli (ECHCG); experiment: Pre-emergence herbicidal action against ECHCG; settings: dosage 320 g/ha
Method in brief: as §1

[4] = tested on: Lolium rigidum (LOLRI); experiment: Pre-emergence herbicidal action against LOLRI; settings: dosage 320 g/ha
Method in brief: as §1

[5] = tested on: Matricaria inodora (MATIN); experiment: Pre-emergence herbicidal action against MATIN; settings: dosage 320 g/ha
Method in brief: as §1

[6] = tested on: Setaria viridis (SETVI); experiment: Pre-emergence herbicidal action against SETVI; settings: dosage 320 g/ha
Method in brief: as §1

[7] = tested on: Viola tricolor (VIOTR); experiment: Pre-emergence herbicidal action against VIOTR; settings: 320 g/ha, Viola tricolor
Method in brief: as §1

[8] = tested on: Brassica napus (BRSNW); settings: crop plant compatibility, in comparison to untreated controls
Method in brief: (§2)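 Crop injury rated visually in percent against untreated plants roughly 3 weeks after treatment (0% no effect, 100% plants dead). Compounds, as WP or EC with 0.5% additive in 600 l/ha water, were applied to the covering soil right after sowing; greenhouse growth. Suffixes a, b, c denote different dosages.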

[9] = tested on: Glycine max (GLXMA); settings: pre-emergence, crop plant compatibility, in comparison to untreated controls
Method in brief: as §2

[10] = tested on: Oryza sativa (ORYSA); settings: pre-emergence, crop plant compatibility, in comparison to untreated controls
Method in brief: as §2

[11] = tested on: Triticum aestivum (TRZAS); settings: pre-emergence, crop plant compatibility, in comparison to untreated controls
Method in brief: as §2

[12] = tested on: Abutilon theophrasti (ABUTH); experiment: Post-emergence herbicidal action against ABUTH; settings: 320 g/ha, visual rating about 3 weeks after treatment vs untreated controls (100% = plants have died, 0% = like control plants)
Method in brief: (§3)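 Values are percent visual activity (0% like control, 100% plants dead) after about 3 weeks in the greenhouse. Treatment: post-emergence spray at one-leaf stage, 600 l/ha spray volume, 0.5% additive, doses 320 g/ha or lower.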

[13] = tested on: Alopecurus myosuroides (ALOMY); experiment: Post-emergence herbicidal action against ALOMY; settings: 320 g/ha, visual rating about 3 weeks after treatment vs untreated controls (100% = plants have died, 0% = like control plants)
Method in brief: as §3

[14] = tested on: Amaranthus retroflexus (AMARE); experiment: Post-emergence herbicidal action against AMARE; settings: 320 g/ha, visual rating about 3 weeks after treatment
Method in brief: as §3

[15] = tested on: Avena fatua (AVEFA); experiment: Post-emergence herbicidal action against AVEFA; settings: visual rating about 3 weeks after treatment
Method in brief: as §3

[16] = tested on: Lolium rigidum (LOLRI); experiment: Post-emergence herbicidal action against LOLRI; settings: dosage 320 g/ha
Method in brief: as §3

[17] = tested on: Matricaria inodora (MATIN); experiment: Post-emergence herbicidal action against MATIN; settings: dosage 320 g/ha
Method in brief: as §3

[18] = tested on: Pharbitis purpurea (PHBPU); experiment: Post-emergence herbicidal action against PHBPU
Method in brief: as §3

[19] = tested on: Setaria viridis (SETVI); experiment: Post-emergence herbicidal action against SETVI
Method in brief: as §3

[20] = tested on: Viola tricolor (VIOTR); experiment: Post-emergence herbicidal action against VIOTR
Method in brief: as §3

[21] = tested on: Oryza sativa (ORYSA); settings: crop plant compatibility, effect in comparison to untreated controls
Method in brief: (§4)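 Greenhouse crops in sandy loam sprayed post-emergence at the one-leaf stage, 2–3 weeks after sowing, with WP or EC formulations in water plus 0.5% additive at 600 l/ha. Damage rated visually about 3 weeks later versus untreated controls (0% = like control, 100% = dead); suffixes a–c denote different doses.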

[22] = tested on: Triticum aestivum (TRZAS); settings: crop plant compatibility, 80 g/ha, effect vs untreated controls
Method in brief: as §4

[23] = tested on: Zea mays (ZEAMX); settings: pre-emergence, crop plant compatibility, in comparison to untreated controls
Method in brief: as §2

[24] = tested on: Zea mays (ZEAMX); settings: crop plant compatibility, effect vs untreated controls
Method in brief: as §4

Row | Pre-emergence action against BRSNW in % ([8]; 80 g/ha) [%] | Pre-emergence action against GLXMA in % ([9]; 320 g/ha) [%] | Pre-emergence action against ORYSA in % ([10]; 80 g/ha) [%] | Pre-emergence action against TRZAS in % ([11]; 80 g/ha) [%] | Post-emergence action against ORYSA in % ([21]; 80 g/ha) [%] | Post-emergence action against ORYSA in % ([21]; 320 g/ha) [%] | Post-emergence action against TRZAS in % [22] [%] | Pre-emergence action against BRSNW in % ([8]; 320 g/ha) [%] | Pre-emergence action against GLXMA in % ([9]; 80 g/ha) [%] | Pre-emergence action against ORYSA in % ([10]; 320 g/ha) [%] | Pre-emergence action against ZEAMX in % ([23]; 80 g/ha) [%] | Pre-emergence action against ZEAMX in % ([23]; 320 g/ha) [%] | Post-emergence action against ZEAMX in % ([24]; 80 g/ha) [%] | Post-emergence action against ZEAMX in % ([24]; 320 g/ha) [%] | SMILES | Pre-emergence action against VIOTR in % [7] [%] | Post-emergence action against PHBPU in % ([18]; dosage 320 g/ha) [%] | also measured
1 | 20 | 20 | 0 | 0 | 0 | 10 | 0 |  |  |  |  |  |  |  | O=C(O)CSc1nn(-c2ccccn2)c(-c2ccc(F)nc2)c1Br [Example I-69] | 90 | 80 | Pre-emergence action against AMARE in % ([1]; 80 g/ha): 80%; Pre-emergence action against AMARE in % ([1]; 320 g/ha): 90%; Pre-emergence action against AVEFA in % [2]: 80%; Pre-emergence action against ECHCG in % [3]: 90%; Pre-emergence action against LOLRI in % [4]: 80%; Pre-emergence action against MATIN in % [5]: 90%; Pre-emergence action against SETVI in % [6]: 100%; Post-emergence action against ABUTH in % [12]: 80%; Post-emergence action against ALOMY in % [13]: 90%; Post-emergence action against AMARE in % [14]: 80%; Post-emergence action against AVEFA in % ([15]; 80 g/ha): 80%; Post-emergence action against AVEFA in % ([15]; 320 g/ha): 100%; Post-emergence action against LOLRI in % [16]: 80%; Post-emergence action against MATIN in % [17]: 80%; Post-emergence action against PHBPU in % ([18]; dosage 80 g/ha): 80%; Post-emergence action against SETVI in % ([19]; dosage 80 g/ha): 80%; Post-emergence action against SETVI in % ([19]; dosage 320 g/ha): 80%; Post-emergence action against VIOTR in % ([20]; 80 g/ha): 80%; Post-emergence action against VIOTR in % ([20]; 320 g/ha): 80%
2 | 0 | 0 | 0 | 20 | 0 | 0 |  | 0 | 0 | 20 | 0 | 0 | 0 | 0 | CCOC(=O)COc1nn(-c2ncccc2OC)c(-c2ccc(F)nc2)c1I [Example I-386] |  |  | 
3 | 0 | 20 |  | 0 | 0 | 0 | 10 | 20 | 0 | 0 | 0 | 0 | 0 | 0 | COC(=O)COc1nn(-c2ncccc2OC)c(-c2ccc(F)nc2)c1Cl [Example I-346] | 80 | 90 | 
4 | 0 |  | 0 | 0 | 10 | 20 | 20 |  | 0 | 0 | 0 | 0 | 20 |  | O=C(O)CNC(=O)COc1nn(-c2ccnc(F)c2)c(-c2ccc(F)nc2)c1Br [III-26] |  |  | Pre-emergence action against TRZAS in % ([11]; 320 g/ha): 20%
